# Measurements taken from patent US8580805B2, “Pyrimidine carboxamide derivatives” (priority 2010, dated 2013).
# How the values were obtained:
# [1] = test system: adjuvant-induced arthritis in male Lewis rats; experiment: adjuvant-induced arthritis test in rats; format: in vivo, rat; details: change day 28 minus day 21; 30 mg/kg by intubation each day for seven days; vehicle result in parenthesis
# Experimental: As mentioned earlier, the compounds of formula (1) and pharmaceutically acceptable salts of compounds of formula (1) are useful in the treatment or prevention of inflammations and diseases where inflammation is the innate cause. For example, they can be used as anti-inflammatory agents in the treatment of inflammatory joint diseases, such as arthritis. To substantiate this assertion, representative compounds of formula (1) were tested for their inflammation-inhibiting properties in the adjuvant-induced arthritis test in rats as described in Int J Immunopharma, […], 12, 709-712.
# A quantity of 0.1 ml of a 0.5% (weight/volume) suspension of heat-killed and dried mycobacterium butyricum in heavy mineral oil, containing 0.2% digitonin, is injected into the base of the tail of male Lewis rats (120-140 g). The animals are housed individually and receive feed and water ad libitum. The thus-induced arthritis is allowed to develop without treatment during 21 days. On day 21 the body weight of each animal is determined. At the same time, the volumes of the two hind paws of each animal are measured by immersing the paws in an aqueous plethysmograph up to the height of the lateral malleolus. Thereupon, the animals are divided into groups, each group comprising six animals of approximately the same average volumes of the hind paws. One group is administered suspending vehicle. The other groups are administered the micronized test compound suspended in an aqueous suspending vehicle [0.9% NaCl (w/v) containing 0.5% carboxymethyl cellulose (w/v), 0.86% benzyl alcohol (v/v) and 0.39% Tween 80 (v/v)]. The test compound in aqueous suspending vehicle (or vehicle alone) is administered to the animals by intubation each day over a period of seven days. The effect of the test compounds is monitored daily by measurement of the hind paw volumes and body weights. At the end of the treatment period (day 28), body weights and volumes of the hind paws are again determined. The changes over the treatment period are calculated. The change in paw volume or body weight equals the paw volume or body weight on day 28 minus paw volume or body weight on day 21.
# The results determined for representative compounds of formula (1) in the test described hereinbefore are set forth in the following Table I. Therein, the results for vehicle is in parenthesis following the results for each tested compound at a dose level of 30 mg/kg in each test.
# ovine COX-1 = target: T1, ovine COX-1 (Ovis aries, UniProt P05979); experiment: COX Activity Assay (Cayman), colorimetric, COX-1; format: biochemical; details: at a level of 300 μM
# T1 construct: purchased Cayman Chemicals
# T1 sequence (P05979 25-600): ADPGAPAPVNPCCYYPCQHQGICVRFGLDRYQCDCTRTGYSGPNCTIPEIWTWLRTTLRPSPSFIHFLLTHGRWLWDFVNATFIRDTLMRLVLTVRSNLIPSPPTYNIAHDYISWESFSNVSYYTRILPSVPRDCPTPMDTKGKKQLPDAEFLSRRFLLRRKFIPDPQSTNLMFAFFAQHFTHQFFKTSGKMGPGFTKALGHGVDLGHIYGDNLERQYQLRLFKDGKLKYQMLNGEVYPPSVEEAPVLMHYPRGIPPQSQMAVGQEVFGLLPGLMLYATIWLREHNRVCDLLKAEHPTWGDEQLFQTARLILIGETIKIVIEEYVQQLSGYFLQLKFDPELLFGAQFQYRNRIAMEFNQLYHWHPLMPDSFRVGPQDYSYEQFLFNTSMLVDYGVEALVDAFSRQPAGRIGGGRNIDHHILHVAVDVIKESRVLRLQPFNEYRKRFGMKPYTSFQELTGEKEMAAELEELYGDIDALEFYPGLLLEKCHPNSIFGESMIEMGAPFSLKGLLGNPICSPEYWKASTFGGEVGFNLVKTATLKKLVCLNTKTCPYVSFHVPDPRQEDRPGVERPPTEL
# Experimental: (§1) A representative compounds of formula (1a), was also tested for the effects on the activity of purified COX1, COX2, and LOX5 enzymes. In sharp contrast to the potent activity in the adjuvant-induced arthritis test in rats, the activity against the isolated arachidonic acid metabolizing enzymes was low.
# (§2) COX activity was measured using an assay kit obtained from Cayman Chemicals in accord with the instruction manual of the manufacturer “COX Activity Assay, Catalog No. 760151, Colorimetric Assay for the Determination of COX Activity.” The enzyme activity was determined by the peroxidase activity of cyclooxygenases on arachidonic acid and monitored colorimetrically at 590 nm by the appearance of oxidized N,N,N′,N′-tetramethyl-p-phenylenediamine. Both ovine COX-1 and human recombinant COX-2 were obtained from Cayman Chemicals.
# human recombinant COX-2 = target: T2, human recombinant COX-2 (Homo sapiens, UniProt P35354); experiment: COX Activity Assay (Cayman), colorimetric, COX-2; format: biochemical; details: read-out: IC50 for COX2
# T2 construct: purchased Cayman Chemicals
# T2 sequence (P35354 18-604): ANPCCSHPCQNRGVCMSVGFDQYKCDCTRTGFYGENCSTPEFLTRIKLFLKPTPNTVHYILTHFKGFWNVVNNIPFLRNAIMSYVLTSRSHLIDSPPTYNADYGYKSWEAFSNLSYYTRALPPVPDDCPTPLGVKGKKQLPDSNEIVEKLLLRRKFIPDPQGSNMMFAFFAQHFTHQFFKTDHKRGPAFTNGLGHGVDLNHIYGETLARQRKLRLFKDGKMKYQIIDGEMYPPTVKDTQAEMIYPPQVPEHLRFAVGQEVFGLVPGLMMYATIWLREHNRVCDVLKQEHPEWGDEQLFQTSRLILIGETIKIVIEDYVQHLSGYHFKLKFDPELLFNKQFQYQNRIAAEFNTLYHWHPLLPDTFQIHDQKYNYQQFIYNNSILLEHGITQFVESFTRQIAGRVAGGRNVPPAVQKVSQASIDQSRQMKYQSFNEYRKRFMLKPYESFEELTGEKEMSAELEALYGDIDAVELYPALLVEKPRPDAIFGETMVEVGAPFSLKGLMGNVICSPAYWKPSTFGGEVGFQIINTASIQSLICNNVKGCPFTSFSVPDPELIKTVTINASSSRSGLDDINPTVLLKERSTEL
# Experimental: as §1, §2
# [2] = test system: purified potato 5-lipoxygenase; experiment: LOX Inhibitor Screening Assay Kit (Cayman), colorimetric; format: biochemical; details: arachidonic acid as substrate
# Experimental: A representative compounds of formula (1a), was also tested for the effects on the activity of purified COX1, COX2, and LOX5 enzymes. In sharp contrast to the potent activity in the adjuvant-induced arthritis test in rats, the activity against the isolated arachidonic acid metabolizing enzymes was low. LOX5 activity was also measured colorimetrically by the hydroperoxides generated from the incubation of purified potato 5-lipoxygenase (Cayman Chemical Item Number 60401) in the LOX Inhibitor Screening Assay Kit (Cayman Chemical Item Number 760700) using arachidonic acid as substrate and following the protocol provided by Cayman Chemical. The test substance A inhibited the enzyme at 300, 100, 30 μM at 89, 69, and 46%, respectively.
effect on COX1 (ovine COX-1),IC50 (human recombinant COX-2) [µM],LOX5 inhibition ([2]; 30 μM) [%],LOX5 inhibition ([2]; 100 μM) [%],LOX5 inhibition ([2]; 300 μM) [%],Structure (SMILES),Body weight change (g) [1],Left paw volume (mL) [1],Right paw volume (mL) [1]
–,–,–,–,–,"CNC(=O)c1cnc(OC)nc1-c1cc(C(C)(C)C)c(O)c(C(C)(C)C)c1 [C, 4-(3,5-di-tert-butyl-4-hydroxy-phenyl)-2-methoxy-pyrimidine-5-carboxylic acid methylamide]",28 ± 2 (13) g,−0.65 ± 0.02 (0.09) mL,−0.61 ± 0.01 (0.08) mL
no effect,60,46,69,89,"CNC(=O)c1cnc(C)nc1-c1cc(C(C)(C)C)c(O)c(C(C)(C)C)c1 [Compound A, 4-(3,5-di-tert-butyl-4-hydroxy-phenyl)-2-methyl-pyrimidine-5-carboxylic acid methylamide]",25 ± 3 (13) g,−0.88 ± 0.12 (0.09) mL,−0.99 ± 0.15 (0.08) mL
